Key:
Type in all cases: biochemical
[1] = target: T1, WT apoALAS2 (residues 54–587) (Homo sapiens, UniProt P22557); experiment: Inhibitor competition, apoenzyme reactivation by PLP with or without hemin; details: for Vmax / Km: PLP varied; for Km: 95% confidence interval in brackets
T1 construct: His6-SUMO (N, cleaved yes); made in house; host or cells: Escherichia coli BL21-Codon Plus (DE3)-RIL
T1 sequence (P22557 54-587): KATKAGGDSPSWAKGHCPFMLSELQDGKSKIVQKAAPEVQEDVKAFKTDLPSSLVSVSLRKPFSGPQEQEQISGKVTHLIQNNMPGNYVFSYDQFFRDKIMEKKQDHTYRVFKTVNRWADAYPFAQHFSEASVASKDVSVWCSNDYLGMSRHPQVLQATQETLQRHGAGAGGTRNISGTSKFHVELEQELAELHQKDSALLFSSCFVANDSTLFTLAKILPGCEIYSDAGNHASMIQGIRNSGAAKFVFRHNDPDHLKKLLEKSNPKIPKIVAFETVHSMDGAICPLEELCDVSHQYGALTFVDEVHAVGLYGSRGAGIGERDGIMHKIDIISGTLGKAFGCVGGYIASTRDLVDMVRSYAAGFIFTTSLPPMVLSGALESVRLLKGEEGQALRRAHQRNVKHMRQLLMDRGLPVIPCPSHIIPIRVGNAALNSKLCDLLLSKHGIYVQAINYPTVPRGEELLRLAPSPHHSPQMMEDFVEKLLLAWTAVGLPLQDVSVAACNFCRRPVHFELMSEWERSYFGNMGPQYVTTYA
Description: (§1) A discontinuous colorimetric activity assay adapted from Shoolingin-Jordan et al. and Bailey et al. was used to measure the enzyme activity ([48], [74]). The reaction was initiated by adding 100 nM purified enzyme to 50 mM potassium phosphate, pH 7.0, 10 mM MgCl2, 1 mM DTT, 100 mM glycine, and 300 μM succinyl-CoA (175 μl total). The reaction was incubated at 37 °C for 15 min and terminated with 100 μl of cold 10% trichloroacetic acid. The precipitated protein was removed by centrifugation for 5 min at 13,000g, and 240 μl of the supernatant was mixed with 240 μl of 1 M sodium acetate, pH 4.6. To derivatize ALA, 20 μl of acetylacetone was added to the mixture and boiled at 100 °C for 10 min. After the sample was cooled for 20 min, 100 μl aliquots were transferred into a clear 96-well plate in triplicate. An equal volume of Ehrlich’s reagent (p-Dimethylaminobenzaldehyde, DMAB) was added to each well, and the absorbance was monitored at 553 nm using a microplate reader (Thermo Fisher Scientific). The peak absorbance value was converted to molar ALA concentration using ε553 = 60,400 M^−1 cm^−1.
(§2) For inhibitor competition experiments, the apoenzymes were preincubated with hemin or PLP (0–100 μM) for 15 min at 25 °C in the dark before initiating the reaction. Next, either PLP or hemin (0–100 μM) was titrated into the reactions to measure enzyme activation after hemin inhibition or enzyme inhibition of the PLP-treated apoenzyme, respectively. For succinyl-CoA:hemin competition analyses, the WT holoenzyme was mixed with hemin (0, 25, 50, and 100 μM), followed by the addition of increasing succinyl-CoA concentrations (0, 25, 50, 100, 250, and 500 μM). All experiments were performed with a minimum of three biological replicates, each with three technical replicates. Data were fit using nonlinear regression to generate an agonist dose-response curve (EC50) or an inhibitor dose-response curve (IC50). Lineweaver-Burk analysis was performed using the resulting kinetic parameters (Vmax and KM) in GraphPad Prism 10.

[2] = target: T2, apoALAS2 ΔC (residues 54–547) (Homo sapiens, UniProt P22557); experiment: Inhibitor competition, apoenzyme reactivation by PLP with hemin
T2 construct: a truncation without the C-terminal CXXC motif (ΔC, residues 54–547); His6-SUMO (N, cleaved yes); made in house; host or cells: Escherichia coli BL21-Codon Plus (DE3)-RIL
T2 sequence (P22557 54-547): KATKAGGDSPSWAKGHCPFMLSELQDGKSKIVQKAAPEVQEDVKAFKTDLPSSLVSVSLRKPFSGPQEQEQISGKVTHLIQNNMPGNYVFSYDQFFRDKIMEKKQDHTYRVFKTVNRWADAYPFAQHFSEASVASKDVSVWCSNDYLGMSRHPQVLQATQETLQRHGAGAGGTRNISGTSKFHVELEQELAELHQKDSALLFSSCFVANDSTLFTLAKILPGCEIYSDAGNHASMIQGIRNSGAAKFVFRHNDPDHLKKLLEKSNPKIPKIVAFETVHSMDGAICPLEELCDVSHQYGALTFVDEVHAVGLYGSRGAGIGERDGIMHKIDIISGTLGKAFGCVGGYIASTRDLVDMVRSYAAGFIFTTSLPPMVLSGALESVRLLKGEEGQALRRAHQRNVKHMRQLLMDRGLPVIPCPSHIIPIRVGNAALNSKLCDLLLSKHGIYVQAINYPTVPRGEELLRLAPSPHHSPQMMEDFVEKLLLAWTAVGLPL
Description: as §1, §2

[3] = target: T3, apoALAS2 ΔN (residues 75–587) (Homo sapiens, UniProt P22557); experiment: as above
T3 construct: a truncation without HRM3 (ΔN, residues 75–587); His6-SUMO (N, cleaved yes); made in house; host or cells: Escherichia coli BL21-Codon Plus (DE3)-RIL
T3 sequence (P22557 75-587): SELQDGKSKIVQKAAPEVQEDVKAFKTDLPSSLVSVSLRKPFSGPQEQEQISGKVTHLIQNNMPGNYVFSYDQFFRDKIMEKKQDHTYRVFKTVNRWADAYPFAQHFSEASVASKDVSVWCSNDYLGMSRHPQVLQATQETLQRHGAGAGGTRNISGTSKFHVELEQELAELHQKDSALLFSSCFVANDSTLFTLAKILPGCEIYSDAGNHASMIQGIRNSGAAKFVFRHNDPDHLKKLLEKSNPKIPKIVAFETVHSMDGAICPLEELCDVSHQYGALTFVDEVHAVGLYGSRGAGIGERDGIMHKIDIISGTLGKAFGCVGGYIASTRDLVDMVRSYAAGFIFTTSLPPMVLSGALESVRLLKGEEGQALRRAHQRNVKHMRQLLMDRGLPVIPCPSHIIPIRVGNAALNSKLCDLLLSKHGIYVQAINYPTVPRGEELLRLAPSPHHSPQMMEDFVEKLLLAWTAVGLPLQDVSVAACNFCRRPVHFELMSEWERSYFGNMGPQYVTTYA
Description: as §1, §2

| Vmax ([1]; hemin 0 μM) | Km ([1]; hemin 0 μM) [µM] | Vmax ([1]; hemin 10 μM) | Km ([1]; hemin 10 μM) [µM] | Vmax ([1]; hemin 25 μM) | Km ([1]; hemin 25 μM) [µM] | Vmax ([1]; hemin 50 μM) | Km ([1]; hemin 50 μM) [µM] | Vmax ([1]; hemin 100 μM) | Km ([1]; hemin 100 μM) [µM] | activation constant (Ka) ([1]; WT apoALAS2, PLP titration in the absence of heme) [µM] | EC50 ([1]; WT apoALAS2, PLP titration in the presence of 50 μM hemin) [µM] | apoenzyme activity restored ([1]; WT apoenzyme preincubated with 50 μM heme, excess PLP) [%] | EC50 ([2]; ΔC apoALAS2, PLP titration in the presence of 50 μM hemin) [µM] | apoenzyme activity restored ([2]; ΔC apoenzyme preincubated with 50 μM heme, excess PLP) [%] | EC50 ([3]; ΔN apoALAS2, PLP titration in the presence of 25 μM hemin) [µM] | mode of inhibition ([1]; WT apoenzyme, varied PLP, various heme concentrations up to 100-fold excess) | mode of inhibition ([2]; ΔC, multiple heme concentrations (Fig. S4)) | mode of inhibition ([3]; ΔN, multiple heme concentrations (Fig. S4)) | Compound |
| --- | --- | --- | --- | --- | --- | --- | --- | --- | --- | --- | --- | --- | --- | --- | --- | --- | --- | --- | --- |
| 110.84 [123.30, 100.65] nmol/min/mg | 0.86 | 91.16 [97.56, 85.54] nmol/min/mg | 3.36 | 58.17 [67.25, 51.28] nmol/min/mg | 4.78 | 45.96 [99.50, 29.88] nmol/min/mg | 11.9 | 27.29 [41.39, 20.36] nmol/min/mg | 9.82 | 0.72 ± 0.08 | 7 ± 1 | ~50 | 9 ± 1 | ~50 | 4 ± 2 | – | – | – | Cc1ncc(COP(=O)(O)O)c(C=O)c1O [PLP] |
| – | – | – | – | – | – | – | – | – | – | – | – | – | – | – | – | mixed inhibitor | allosteric mixed inhibitor | allosteric mixed inhibitor | ferric chloride heme [hemin] |

Source: PMC12856317, “A reversible feedback mechanism regulating mitochondrial heme synthesis” (The Journal of Biological Chemistry, 2025)
